From patent EP0302407A2, “Metallic complexes of streptogramin-B, their preparation and their use in animal food” (HOECHST AKTIENGESELLSCHAFT, priority 1987, dated 1989)
Marks after values point to notes of the source that are not given here.

How the values were obtained:
Assay type in all cases: in vivo
[1] = system: männlichen Mastküken (Lohmann); assay: Feeding trial with broiler chicks, Beispiel II (42 days)
Source text: (§1) Der Versuch lief über 6 Wochen. Futter und Trinkwasser wurden nach Belieben angeboten. Die Tiere wurden wöchentlich einzeln gewogen, die Lebendmasse(LM)-Zunahmen errechnet, die Futteraufnahme bestimmt und aus Futteraufnahme : LM-Zunahme der Futteraufwand errechnet. Die Mortalität wurde erfaßt und aus all diesen Parametern die Produktionszahl (PZ) errechnet. [formula]
In einem Mastküken-Versuch über 42 Tage wurde mit 144 männlichen Mastküken (Lohmann) 3 x 48 Küken (8 Wiederholungen x 6 Tiere) der Einfluß von Etamycin-Cu-Komplex gemäß Beispiel I in Dosierungen von 5 und 10 ppm gegenüber Negativ-Kontrollen ohne Zusatz geprüft. Haltung und Fütterung waren die gleichen wie in Beispiel I.

männlichen Mastküken [2] = assay: Feeding trial with broiler chicks, Beispiel I (6 weeks); settings: for Mortalität: 60480 min
Source text: Ein Fütterungsversuch mit Etamycin-Cu-Komplex gemäß Herstellungsbeispiel 2 wurde mit 120 männlichen Mastküken in 3 Gruppen zu je 40 Küken durchgeführt, die in beheizten Batterien (5 Küken bei 8 Wiederholungen) gehalten wurden. Folgende Präparate und Dosierungen wurden eingesetzt:
Das Grundfutter hatte eine handelsübliche Zusammensetzung mit 13,0 MJ/kg = 3100 kcal/kg und einem Rohproteingehalt von 22 %, bei einem normgerechten Aminosäuren-, Vitamin-, Mineralstoff- und Spurenelementgehalt.
as §1

männlichen Mastküken [3] = assay: Feeding trial with broiler chicks, Beispiel IV (5 weeks); settings: for Mortalität: 50400 min
Source text: as §1
Mit 96 männlichen Mastküken wurde in 3 Gruppen zu je 32 Mastküken (4 Wiederholungen x 8 Tiere) über 5 Wochen der Einfluß des Etamycin-Mn-Komplexes gemäß Beispiel 10 in Dosierungen von 5 und 10 ppm im Vergleich zu einer Negativ-Kontrolle (ohne Zusatz) geprüft. Die Haltungs- und Fütterungsbedingungen sowie die Auswertung waren die gleichen wie in Beispiel I.

Mastküken = assay: Feeding trial with broiler chicks, Beispiel III (6 weeks); settings: 10 mg/kg Futter (ppm)
Source text: as §1
In einem weiteren Mastküken-Versuch wurde der Einfluß von Etamycin-Zn-Komplex gemäß Beispiel 4 in einer Dosierung von 10 ppm im Vergleich zu einer Negativ-Kontrolle wie im Beispiel I geprüft. Zum Einsatz kamen 36 Mastküken (6 Wiederholungen x 6 Tiere), bei einer Versuchszeit von 6 Wochen. Haltungs- und Fütterungsbedingungen waren die gleichen wie im Beispiel I.

[4] = 5 mg/kg Futter (ppm), Futteraufnahme : LM-Zunahme
[5] = 5 mg/kg Futter (ppm), control = 100
[6] = 10 mg/kg Futter (ppm), Futteraufnahme : LM-Zunahme
[7] = 10 mg/kg Futter (ppm), control = 100
[8] = 20 mg/kg Futter (ppm), control = 100

## Etamycin-Kupfer-(II)-komplex (Et₂ x Cu(II)) [Etamycin-Cu-Komplex]
[1]; 5 mg/kg Futter (ppm)
  Futteraufnahme: 3260 g
  LM-Zunahme: 1699 * g
  Mortalität: 2,1%
  Produktionszahl: 207
[1]; [4]
  Futteraufwand: 1,92
[1]; [5]
  Futteraufnahme: 106,3 rel.%
  Futteraufwand: 97,5 rel. %
  LM-Zunahme: 109,0 rel.%
[1]; 10 mg/kg Futter (ppm)
  Futteraufnahme: 3099 g
  LM-Zunahme: 1673 * g
  Mortalität: 6,3%
  Produktionszahl: 202
[1]; [6]
  Futteraufwand: 1,85
[1]; [7]
  Futteraufnahme: 101,0 rel.%
  Futteraufwand: 93,9 rel. %
  LM-Zunahme: 107,3 rel.%
männlichen Mastküken [2]; 5 mg/kg Futter (ppm)
  Futteraufnahme: 2561 g
  LM-Zunahme: 1439 * g
  Produktionszahl: 154
  Mortalität: 20%
männlichen Mastküken [2]; [4]
  Futteraufwand: 1,78
männlichen Mastküken [2]; [5]
  Futteraufnahme: 101,2 rel.%
  Futteraufwand: 92,7 rel. %
  LM-Zunahme: 109,0 rel.%
männlichen Mastküken [2]; 20 mg/kg Futter (ppm)
  Futteraufnahme: 2644 g
  LM-Zunahme: 1442 * g
  Produktionszahl: 173
  Mortalität: 7,5%
männlichen Mastküken [2]; 20 mg/kg Futter (ppm), Futteraufnahme : LM-Zunahme
  Futteraufwand: 1,83
männlichen Mastküken [2]; [8]
  Futteraufnahme: 104,5 rel.%
  Futteraufwand: 95,3 rel. %
  LM-Zunahme: 109.2 rel.%

## Etamycin-Mangan (II)-komplex Et₂ x Mn(II) [Etamycin-Mn-Komplex]
männlichen Mastküken [3]; 5 mg/kg Futter (ppm)
  Futteraufnahme: 2334 g
  LM-Zunahme: 1394 * g
  Produktionszahl: 222
  Mortalität: 0%
männlichen Mastküken [3]; [4]
  Futteraufwand: 1,67
männlichen Mastküken [3]; [5]
  Futteraufnahme: 100 rel.%
  Futteraufwand: 93,8 rel. %
  LM-Zunahme: 106,4 rel.%
männlichen Mastküken [3]; 10 mg/kg Futter (ppm)
  Futteraufnahme: 2413 g
  LM-Zunahme: 1419 * g
  Produktionszahl: 222
  Mortalität: 0%
männlichen Mastküken [3]; [6]
  Futteraufwand: 1,70
männlichen Mastküken [3]; [7]
  Futteraufnahme: 103,4 rel.%
  Futteraufwand: 95,5 rel. %
  LM-Zunahme: 108,3 rel.%

## Etamycin-Zn(II)-komplex (Et₂ x Zn(II)) [Etamycin-Zn-Komplex]
Mastküken
  Futteraufnahme: 3041 g
  LM-Zunahme: 1748 * g
  Produktionszahl: 228
Mastküken; 60480 min
  Mortalität: 5,6%
Mastküken; Futteraufnahme : LM-Zunahme
  Futteraufwand: 1,74
Mastküken; control = 100
  Futteraufnahme: 102,5 rel.%
  Futteraufwand: 93,5 rel. %
  LM-Zunahme: 109,4 rel.%
